Data reported in PubChem BioAssay (NCI).
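Abbreviation: GI50, concentration required for 50% inhibition of growth. TGI denotes the concentration required for complete inhibition of growth.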

Legend:
Test in all cases: inhibition of tumour cell growth, NCI panel, 384-well format
HCT-116 colon = tested on: HCT-116 colon
SF-268 CNS = tested on: SF-268 CNS
NCI-H460 NSCLC = tested on: NCI-H460 NSCLC
OVCAR-3 ovarian = tested on: OVCAR-3 ovarian
A549 NSCLC = tested on: A549 NSCLC
MCF7 breast = tested on: MCF7 breast
SN12C renal = tested on: SN12C renal
PC-3 prostate = tested on: PC-3 prostate
M14 melanoma = tested on: M14 melanoma
SNB-19 CNS = tested on: SNB-19 CNS
MOLT-4 leukemia = tested on: MOLT-4 leukemia
SF-539 CNS = tested on: SF-539 CNS
HT29 colon = tested on: HT29 colon
A498 renal = tested on: A498 renal
COLO 205 colon = tested on: COLO 205 colon
LOX IMVI melanoma = tested on: LOX IMVI melanoma
SNB-75 CNS = tested on: SNB-75 CNS
UACC-257 melanoma = tested on: UACC-257 melanoma
SK-MEL-5 melanoma = tested on: SK-MEL-5 melanoma
OVCAR-5 ovarian = tested on: OVCAR-5 ovarian
CCRF-CEM leukemia = tested on: CCRF-CEM leukemia
K-562 leukemia = tested on: K-562 leukemia
OVCAR-4 ovarian = tested on: OVCAR-4 ovarian
IGROV1 ovarian = tested on: IGROV1 ovarian
MDA-MB-468 breast = tested on: MDA-MB-468 breast
HCT-15 colon = tested on: HCT-15 colon
HOP-92 NSCLC = tested on: HOP-92 NSCLC
OVCAR-8 ovarian = tested on: OVCAR-8 ovarian
HL-60(TB) leukemia = tested on: HL-60(TB) leukemia
HCC-2998 colon = tested on: HCC-2998 colon
U251 glioblastoma = tested on: U251 glioblastoma
786-0 renal = tested on: 786-0 renal
HS 578T breast = tested on: HS 578T breast
UACC-62 melanoma = tested on: UACC-62 melanoma
RXF 393 renal = tested on: RXF 393 renal
KM12 colon = tested on: KM12 colon
BT-549 breast = tested on: BT-549 breast
MDA-MB-435 melanoma = tested on: MDA-MB-435 melanoma
T-47D breast = tested on: T-47D breast
SW-620 colon = tested on: SW-620 colon
SK-MEL-28 melanoma = tested on: SK-MEL-28 melanoma
NCI/ADR-RES ovarian = tested on: NCI/ADR-RES ovarian
SF-295 CNS = tested on: SF-295 CNS
NCI-H522 lung = tested on: NCI-H522 lung
MDA-MB-231 breast = tested on: MDA-MB-231 breast
TK-10 renal = tested on: TK-10 renal
UO-31 renal = tested on: UO-31 renal

## C=CC(=O)N1CCN(CCCn2c(=O)c(-c3c(Cl)c(OC)cc(OC)c3Cl)cc3cnc(NC)nc32)CC1
HCT-116 colon
  GI50: 3.55 µM
  TGI: 14.7 µM
SF-268 CNS
  GI50: 1220 nM
  TGI: 7.03 µM
NCI-H460 NSCLC
  GI50: 2510 nM
  TGI: 12.7 µM
OVCAR-3 ovarian
  GI50: 2210 nM
  TGI: 13.6 µM
A549 NSCLC
  GI50: 3.23 µM
  TGI: 14.4 µM
MCF7 breast
  GI50: 7.95 µM
  TGI: 20.7 µM
SN12C renal
  GI50: 2360 nM
  TGI: 12.2 µM
PC-3 prostate
  GI50: 3.56 µM
  TGI: 12.4 µM
M14 melanoma
  GI50: 2110 nM
  TGI: 16.1 µM
SNB-19 CNS
  GI50: 5.11 µM
  TGI: 17.3 µM
MOLT-4 leukemia
  GI50: 689 nM
  TGI: 1960 nM
SF-539 CNS
  GI50: 3.7 µM
  TGI: 16.4 µM
HT29 colon
  GI50: 4.61 µM
  TGI: 16.8 µM
A498 renal
  GI50: 462 nM
  TGI: 4.69 µM
COLO 205 colon
  GI50: 10.9 µM
  TGI: 22.9 µM
LOX IMVI melanoma
  GI50: 2630 nM
  TGI: 15.6 µM
SNB-75 CNS
  GI50: 211 nM
  TGI: 4.88 µM
UACC-257 melanoma
  GI50: 4.44 µM
  TGI: 16 µM
SK-MEL-5 melanoma
  GI50: 2350 nM
  TGI: 13.1 µM
OVCAR-5 ovarian
  GI50: 18.1 µM
  TGI: 46.3 µM
CCRF-CEM leukemia
  GI50: 1510 nM
  TGI: 3.29 µM
K-562 leukemia
  GI50: 5.67 µM
  TGI: 18.3 µM
OVCAR-4 ovarian
  GI50: 3.14 µM
  TGI: 18 µM
IGROV1 ovarian
  GI50: 888 nM
  TGI: 7.23 µM
MDA-MB-468 breast
  GI50: 950 nM
  TGI: 2680 nM
HCT-15 colon
  GI50: 2370 nM
  TGI: 14.9 µM
HOP-92 NSCLC
  GI50: 1610 nM
  TGI: 6.96 µM
OVCAR-8 ovarian
  GI50: 5.9 µM
  TGI: 19.2 µM
HL-60(TB) leukemia
  GI50: 1550 nM
  TGI: 4.2 µM
HCC-2998 colon
  GI50: 9.16 µM
  TGI: 22 µM
U251 glioblastoma
  GI50: 3.72 µM
  TGI: 16 µM
786-0 renal
  GI50: 2380 nM
  TGI: 13.7 µM
HS 578T breast
  GI50: 327 nM
  TGI: 2350 nM
UACC-62 melanoma
  GI50: 1900 nM
  TGI: 11.8 µM
RXF 393 renal
  GI50: 665 nM
  TGI: 3.03 µM
KM12 colon
  GI50: 6.06 µM
  TGI: 18.8 µM
BT-549 breast
  GI50: 369 nM
  TGI: 3.1 µM
MDA-MB-435 melanoma
  GI50: 4.33 µM
  TGI: 14.7 µM
T-47D breast
  GI50: 2860 nM
  TGI: 16.1 µM
SW-620 colon
  GI50: 3.22 µM
  TGI: 9.31 µM
SK-MEL-28 melanoma
  GI50: 15.1 µM
  TGI: 39.5 µM
NCI/ADR-RES ovarian
  GI50: 7.93 µM
  TGI: 21.3 µM
SF-295 CNS
  GI50: 8.31 µM
  TGI: 38.1 µM
NCI-H522 lung
  GI50: 2660 nM
  TGI: 11.8 µM
MDA-MB-231 breast
  GI50: 3.94 µM
  TGI: 14.9 µM
TK-10 renal
  GI50: 5.98 µM
  TGI: 19.5 µM
UO-31 renal
  GI50: 3.72 µM
  TGI: 15.9 µM
